{"source": "PubChem BioAssay AID220", "about": "(DTP/NCI, 2004)", "tested_on": "CD8F1 mice, subcutaneous mammary adenocarcinoma, T/C%", "test": "NCI In Vivo Anticancer Drug Screen. Data for tumor model Mammary Adenocarcinoma CD8F1 (subcutaneous) in CD8F1", "details": "higher = larger tumour", "outline": "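Antitumor activity is assessed in transplantable-tumor mice by comparing the treated group with a vehicle-treated control group. Survival or tumor size serves as the measure, reported as T divided by C.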", "key": {"[1]": {"details": "endpoint: median tumor weight (est.), dose: 6.25 mg/kg/injection, schedule: Q07DX005 (ip), vehicle: Klucel (hydroxypropylcellulose) (HPC)"}, "[2]": {"details": "endpoint: median tumor weight (est.), dose: 12.5 mg/kg/injection, schedule: Q07DX005 (ip), vehicle: Klucel (hydroxypropylcellulose) (HPC)"}, "[3]": {"details": "endpoint: median tumor weight (est.), dose: 100.0 mg/kg/injection, schedule: Q07DX005 (ip), vehicle: Klucel (hydroxypropylcellulose) (HPC)"}, "[4]": {"details": "endpoint: median tumor weight (est.), dose: 200.0 mg/kg/injection, schedule: Q07DX005 (ip), vehicle: Klucel (hydroxypropylcellulose) (HPC)"}, "[5]": {"details": "endpoint: median tumor weight change, dose: 125.0 mg/kg/injection, schedule: Q01DX001 (ip), vehicle: saline with Tween-80"}, "[6]": {"details": "endpoint: median tumor weight change, dose: 250.0 mg/kg/injection, schedule: Q01DX001 (ip), vehicle: saline with Tween-80"}, "[7]": {"details": "endpoint: median tumor weight (est.), dose: 50.0 mg/kg/injection, schedule: Q07DX005 (ip), vehicle: Klucel (hydroxypropylcellulose) (HPC)"}}, "note": "Values joined by “and” are separate entries in the source; they are usually repeats but may differ in a detail not shown here. Equal entries are not always repeated. Inconclusive results are not listed."}
{"compound": "Cc1[nH]c(=O)[nH]c(=O)c1N(CCF)CCCl", "values": [{"measurement": "T/C", "setting": "endpoint: median tumor weight (est.), dose: 2.5 mg/kg/injection, schedule: Q07DX005 (ip), vehicle: Klucel (hydroxypropylcellulose) (HPC)", "value": "113 % of control"}, {"measurement": "T/C", "setting": "endpoint: median tumor weight (est.), dose: 5.0 mg/kg/injection, schedule: Q07DX005 (ip), vehicle: Klucel (hydroxypropylcellulose) (HPC)", "value": "97 % of control"}, {"measurement": "T/C", "setting": "endpoint: median tumor weight (est.), dose: 10.0 mg/kg/injection, schedule: Q07DX005 (ip), vehicle: Klucel (hydroxypropylcellulose) (HPC)", "value": "79 % of control"}, {"measurement": "T/C", "setting": "endpoint: median tumor weight (est.), dose: 20.0 mg/kg/injection, schedule: Q07DX005 (ip), vehicle: Klucel (hydroxypropylcellulose) (HPC)", "value": "63 % of control"}, {"measurement": "T/C", "setting": "endpoint: median tumor weight change, dose: 100.0 mg/kg/injection, schedule: Q01DX001 (ip), vehicle: Klucel (hydroxypropylcellulose) (HPC)", "value": "68 % of control"}]}
{"compound": "CC(=O)OCc1cc(=O)n(C)c2c3c4c(cc12)c(C)cc(=O)n4CO3", "values": [{"measurement": "T/C", "setting": "[1]", "value": "42 % of control"}, {"measurement": "T/C", "setting": "[2]", "value": "66 % of control and 78 % of control"}, {"measurement": "T/C", "setting": "[3]", "value": "19 % of control and 43 % of control"}, {"measurement": "T/C", "setting": "[4]", "value": "22 % of control and 26 % of control"}]}
{"compound": "c1cnc2ncncc2n1", "values": [{"measurement": "T/C", "setting": "endpoint: median tumor weight (est.), dose: 12.5 mg/kg/injection, schedule: Q07DX005 (ip), vehicle: saline with Tween-80", "value": "84 % of control and 100 % of control"}, {"measurement": "T/C", "setting": "endpoint: median tumor weight (est.), dose: 25.0 mg/kg/injection, schedule: Q07DX005 (ip), vehicle: saline with Tween-80", "value": "93 % of control and 100 % of control"}, {"measurement": "T/C", "setting": "endpoint: median tumor weight (est.), dose: 50.0 mg/kg/injection, schedule: Q07DX005 (ip), vehicle: saline with Tween-80", "value": "69 % of control and 84 % of control"}, {"measurement": "T/C", "setting": "endpoint: median tumor weight (est.), dose: 100.0 mg/kg/injection, schedule: Q07DX005 (ip), vehicle: saline with Tween-80", "value": "92 % of control and 99 % of control"}]}
{"compound": "N=C1CCCS1", "values": [{"measurement": "T/C", "setting": "endpoint: median tumor weight change, dose: 125.0 mg/kg/injection, schedule: Q01DX001 (ip), vehicle: saline", "value": "93 % of control"}, {"measurement": "T/C", "setting": "endpoint: median tumor weight change, dose: 250.0 mg/kg/injection, schedule: Q01DX001 (ip), vehicle: saline", "value": "89 % of control"}]}
{"compound": "CC(Oc1ccccc1-c1ccccc1)C(=O)N(C)C", "note": "(configuration not stated)", "values": [{"measurement": "T/C", "setting": "[5]", "value": "70 % of control"}, {"measurement": "T/C", "setting": "[6]", "value": "89 % of control"}, {"measurement": "T/C", "setting": "endpoint: median tumor weight change, dose: 500.0 mg/kg/injection, schedule: Q01DX001 (ip), vehicle: saline with Tween-80", "value": "95 % of control"}]}
{"compound": "Cn1cnc([N+](=O)[O-])c1S(=O)(=O)NCN1CCOCC1", "values": [{"measurement": "T/C", "setting": "[2]", "value": "103 % of control"}, {"measurement": "T/C", "setting": "endpoint: median tumor weight (est.), dose: 25.0 mg/kg/injection, schedule: Q07DX005 (ip), vehicle: Klucel (hydroxypropylcellulose) (HPC)", "value": "164 % of control and 185 % of control"}, {"measurement": "T/C", "setting": "[7]", "value": "71 % of control"}, {"measurement": "T/C", "setting": "[3]", "value": "82 % of control and 95 % of control"}]}
{"compound": "CC(=O)CC(C)=O.CC(=O)CC(C)=O.O=N[O-].O=N[O-].[Co]", "values": [{"measurement": "T/C", "setting": "endpoint: median tumor weight change, dose: 62.5 mg/kg/injection, schedule: Q01DX001 (ip), vehicle: saline with Tween-80", "value": "96 % of control"}, {"measurement": "T/C", "setting": "[5]", "value": "38 % of control"}]}
{"compound": "CC(=O)OCC1OC(OC(C)=O)C(NC(=O)N(CCCl)N=O)C(OC(C)=O)C1OC(C)=O", "note": "(configuration not stated)", "values": [{"measurement": "T/C", "setting": "endpoint: median tumor weight (est.), dose: 1.5 mg/kg/injection, schedule: Q07DX005 (ip), vehicle: Klucel (hydroxypropylcellulose) (HPC)", "value": "61 % of control"}, {"measurement": "T/C", "setting": "endpoint: median tumor weight (est.), dose: 3.0 mg/kg/injection, schedule: Q07DX005 (ip), vehicle: Klucel (hydroxypropylcellulose) (HPC)", "value": "41 % of control and 63 % of control and 66 % of control"}]}
{"compound": "O=C(O)C1(NO)CCCCC1", "values": [{"measurement": "T/C", "setting": "endpoint: median tumor weight change, dose: 125.0 mg/kg/injection, schedule: Q01DX001 (ip), vehicle: Klucel (hydroxypropylcellulose) (HPC)", "value": "76 % of control"}, {"measurement": "T/C", "setting": "endpoint: median tumor weight change, dose: 250.0 mg/kg/injection, schedule: Q01DX001 (ip), vehicle: Klucel (hydroxypropylcellulose) (HPC)", "value": "64 % of control"}, {"measurement": "T/C", "setting": "endpoint: median tumor weight change, dose: 500.0 mg/kg/injection, schedule: Q01DX001 (ip), vehicle: Klucel (hydroxypropylcellulose) (HPC)", "value": "61 % of control"}, {"measurement": "T/C", "setting": "endpoint: median tumor weight change, dose: 1000.0 mg/kg/injection, schedule: Q01DX001 (ip), vehicle: Klucel (hydroxypropylcellulose) (HPC)", "value": "76 % of control"}, {"measurement": "T/C", "setting": "endpoint: median tumor weight change, dose: 2000.0 mg/kg/injection, schedule: Q01DX001 (ip), vehicle: Klucel (hydroxypropylcellulose) (HPC)", "value": "124 % of control"}]}
{"compound": "CN=C(N)N/N=C(\\C)c1ccc2c(c1)Cc1ccccc1-2", "values": [{"measurement": "T/C", "setting": "[5]", "value": "60 % of control"}, {"measurement": "T/C", "setting": "[6]", "value": "55 % of control"}]}
{"compound": "CC1(C)CC(=O)C(CSC(=O)c2ccccc2)C(=O)C1", "values": [{"measurement": "T/C", "setting": "[1]", "value": "182 % of control"}, {"measurement": "T/C", "setting": "endpoint: median tumor weight (est.), dose: 6.25 mg/kg/injection, schedule: Q07DX005 (ip), vehicle: saline", "value": "55 % of control"}, {"measurement": "T/C", "setting": "endpoint: median tumor weight (est.), dose: 12.5 mg/kg/injection, schedule: Q07DX005 (ip), vehicle: saline", "value": "102 % of control"}, {"measurement": "T/C", "setting": "endpoint: median tumor weight (est.), dose: 25.0 mg/kg/injection, schedule: Q07DX005 (ip), vehicle: saline", "value": "158 % of control"}, {"measurement": "T/C", "setting": "[7]", "value": "39 % of control"}, {"measurement": "T/C", "setting": "endpoint: median tumor weight (est.), dose: 50.0 mg/kg/injection, schedule: Q07DX005 (ip), vehicle: saline", "value": "73 % of control"}, {"measurement": "T/C", "setting": "[3]", "value": "187 % of control"}, {"measurement": "T/C", "setting": "endpoint: median tumor weight (est.), dose: 100.0 mg/kg/injection, schedule: Q07DX005 (ip), vehicle: saline", "value": "64 % of control"}, {"measurement": "T/C", "setting": "[4]", "value": "57 % of control"}]}
